Common to all, as to assay: In vitro antibacterial activity, two-fold agar-plate dilution method
Assay type in all cases: cell-based

One assay deals with Pr. mirabilis 18. The settings on record: Proteus mirabilis, HI-agar, 37° C., 20 hours, 10^6 viable cells per ml. On the procedure: (§1) In vitro antibacterial activity was determined by the two-fold agar-plate dilution method as described below.
(§2) One loopful of an overnight culture of each test strain in Trypticase-soy broth (10^6 viable cells per ml.) was streaked on heart infusion agar (HI-agar) containing graded concentrations of antibiotics, and the minimum inhibitory concentration (MIC) was expressed in terms of μg/ml after incubation at 37° C. for 20 hours.

In a further assay the test system is Pr. vulgaris 2. The settings on record: Proteus vulgaris, HI-agar, 37° C., 20 hours, 10^6 viable cells per ml. Here is the method:
as §1, §2

Another assay has as its system E. coli 31. The settings on record: Escherichia coli, HI-agar, 37° C., 20 hours, 10^6 viable cells per ml. On the procedure: as §1, §2
The test system of another assay is Kl. pneumoniae 20. The conditions noted are these: Klebsiella pneumoniae, HI-agar, 37° C., 20 hours, 10^6 viable cells per ml. Here is the method:
as §1, §2

Converted amounts (≈) assume the structure as drawn.

As a reminder, the MIC is the least concentration at which growth counts as inhibited. Regarding `CON=C(C(=O)NC1C(=O)N2C(C(=O)O)=CCOC12)c1csc(N)n1` (stereo not drawn) [(1), 7β-[2-Methoxyimino-2-(2-aminothiazol-4-yl)acetamid]-1-oxadethia-3-cephem-4-carboxylic acid (syn isomer)], the minimum inhibitory concentration (MIC) in the assay with Pr. mirabilis 18 worked out at 0.05 µg/mL (≈ 0.136 µM); against Pr. vulgaris 2, 0.2 µg/mL (≈ 0.544 µM); in the assay with E. coli 31 it was 0.05 µg/mL (≈ 0.136 µM); against Kl. pneumoniae 20, 0.1 µg/mL (≈ 0.272 µM).

For `CCON=C(C(=O)NC1C(=O)N2C(C(=O)O)=CCOC12)c1csc(N)n1` (stereo not drawn) [(2), 7β-[2-Ethoxyimino-2-(2-aminothiazol-4-yl)acetamido]-1-oxadethia-3-cephem-4-carboxylic acid (syn isomer)], the MIC against Pr. mirabilis 18 worked out at 0.05 µg/mL (≈ 0.131 µM); against Pr. vulgaris 2, 0.05 µg/mL (≈ 0.131 µM); against E. coli 31, 0.05 µg/mL (≈ 0.131 µM); with Kl. pneumoniae 20, 0.025 µg/mL (≈ 0.0656 µM).

`CC(C)ON=C(C(=O)NC1C(=O)N2C(C(=O)O)=CCOC12)c1csc(N)n1` (stereo not drawn) [(3), 7β-[2-Isopropoxyimino-2-(2-aminothiazol-4-yl)acetamido]-1-oxadethia-3-cephem-4-carboxylic acid (syn isomer)]: the minimal inhibitory concentration (MIC) with Pr. mirabilis 18 was found to be 0.1 µg/mL (≈ 0.253 µM); with Pr. vulgaris 2, 0.1 µg/mL (≈ 0.253 µM); in the assay with E. coli 31, 0.2 µg/mL (≈ 0.506 µM); against Kl. pneumoniae 20, 0.05 µg/mL (≈ 0.126 µM).

Consider `CON=C(C(=O)NC1C(=O)N2C(C(=O)O)=CCOC12)c1nsc(N)n1` (stereo not drawn) [(4), 7β-[2-Methoxyimino-2-(5-amino-1,2,4-thiadiazol-3-yl)acetamido]-1-oxadethia-3-cephem-4-carboxylic acid (syn isomer)], for which the MIC in the assay with Pr. mirabilis 18 came out at 0.1 µg/mL (≈ 0.271 µM); in the assay on Pr. vulgaris 2, 0.1 µg/mL (≈ 0.271 µM); against E. coli 31, 0.025 µg/mL (≈ 0.0679 µM); in the assay with Kl. pneumoniae 20 it was 0.05 µg/mL (≈ 0.136 µM).

For the molecule `CON=C(C(=O)NC1C(=O)N2C(C(=O)O)=CCOC12)c1nccc(N)n1` (stereo not drawn) [(5), 7β-[2-Methoxyimino-2-(4-aminopyrimidin-2-yl)acetamido]-1-oxadethia-3-cephem-4-carboxylic acid (syn isomer)], the MIC with Pr. mirabilis 18 came to 0.05 µg/mL (≈ 0.138 µM); against Pr. vulgaris 2 it was 0.1 µg/mL (≈ 0.276 µM); in the assay on E. coli 31, 0.025 µg/mL (≈ 0.069 µM); against Kl. pneumoniae 20, 0.05 µg/mL (≈ 0.138 µM).

The values are drawn from patent US4234724A, “Cephalosporin analogues and processes for the preparation thereof” (Fujisawa Pharmaceutical Company, Limited, priority 1977, dated 1980).
